Consider 19 molecules from US8574563B2 (Bristol-Myers Squibb Company, priority 2006, dated 2013).

For orientation: EC50 means the concentration that produces a half-maximal response.

Molecules are shown by their SMILES.

The first assay concerns HCV 1b-377-neo replicon cells. Nature of the assay: HCV replicon assay, HCV 1b-377-neo replicon cells (1b FRET). It counts as cell-based, Hepatitis C virus genotype 1b. The following applies: HCV 1b-377-neo replicon cells; HCV 1b genotype; read-out: EC50 range against HCV 1b (Table 2, Range). Put shortly: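 FRET-based replicon assay in HCV 1b-377-neo cells, including a comparison line carrying the NS5A Y2065H mutation that confers resistance to a reference compound.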
On to `O=C(C(c1ccccc1)N1CC[C@H](F)C1)N1CCC[C@H]1c1ncc(-c2ccc(-c3ccc(-c4cnc([C@@H]5CCCN5C(=O)C(c5ccccc5)N5CC[C@H](F)C5)[nH]4)cc3)cc2)[nH]1` (stereo partly drawn) [Example 20, 5,5′-(4,4′-biphenyldiyl)bis(2-((2S)-1-(((3S)-3-fluoro-1-pyrrolidinyl)(phenyl)acetyl)-2-pyrrolidinyl)-1H-imidazole)], for which the EC50 lay within 1 to 99 nM.

The same assay, now with this note: Hepatitis C virus, HCV 1b-377-neo replicon cells; HCV 1b genotype; read-out: EC50 range against HCV 1b (Table 2, Range).
For `COC(=O)N[C@@H](C(=O)N1CCC[C@H]1c1nc(-c2ccc(-c3ccc(-c4cnc([C@@H]5CCCN5C(=O)C(c5cccnc5)N(C)C)[nH]4)cc3)cc2)c[nH]1)c1ccccc1` (stereo partly drawn) [Example 84-62, methyl ((1R)-2-((2S)-2-(4-(4′-(2-((2S)-1-((dimethylamino)(3-pyridinyl)acetyl)-2-pyrrolidinyl)-1H-imidazol-5-yl)-4-biphenylyl)-1H-imidazol-2-yl)-1-pyrrolidinyl)-2-oxo-1-phenylethyl)carbamate], the EC50 lay within 0.001 to 0.999 nM.
`COC(=O)N[C@H](C(=O)N1CCC[C@H]1c1ncc(-c2ccc(-c3ccc(-c4cnc([C@@H]5CCCN5C(=O)[C@@H](Nc5cccnc5)C(C)C)[nH]4)cc3)cc2)[nH]1)[C@@H](C)OC` [cj-20b, methyl ((1S,2R)-2-methoxy-1-(((2S)-2-(5-(4′-(2-((2S)-1-(N-3-pyridinyl-L-valyl)-2-pyrrolidinyl)-1H-imidazol-5-yl)-4-biphenylyl)-1H-imidazol-2-yl)-1-pyrrolidinyl)carbonyl)propyl)carbamate]: the EC50 fell in the range of 0.001 to 0.999 nM.
The same measure, in the same setting: the figure for `Cc1nc(CC(=O)N2CCC[C@H]2c2ncc(-c3ccc(-c4ccc(-c5cnc([C@@H]6CCCN6C(=O)[C@@H](c6ccccc6)N6CCCCC6)[nH]5)cc4)cc3)[nH]2)cs1` [Example 107-25, 1-((1R)-2-((2S)-2-(5-(4′-(2-((2S)-1-((2-methyl-1,3-thiazo1-4-yl)acetyl)-2-pyrrolidinyl)-1H-imidazol-5-yl)-4-biphenylyl)-1H-imidazol-2-yl)-1-pyrrolidinyl)-2-oxo-1-phenylethyl) piperidine] is 0.001 to 0.999 nM.
Still for that read-out and setting: the same measure for `COC(=O)N[C@H](C(=O)N1CCC[C@H]1c1ncc(-c2ccc(-c3ccc(-c4cnc([C@@H]5CCCN5C(=O)[C@@H](NC(=O)OC)[C@H](C)O)[nH]4)cc3)cc2)[nH]1)[C@H](C)O` [Example M16, methyl ((1S,2S)-2-hydroxy-1-(((2S)-2-(5-(4′-(2-((2S)-1-((2S,3S)-3-hydroxy-2-((methoxycarbonyl)amino)butanoyl)-2-pyrrolidinyl)-1H-imidazol-5-yl)-4-biphenylyl)-1H-imidazol-2-yl)-1-pyrrolidinyl)carbonyl)propyl)carbamate]: 1000 to 10000 nM; for `O=C(C(c1ccccc1)N1CCC(O)CC1)N1CCC[C@H]1c1ncc(-c2ccc(-c3ccc(-c4cnc([C@@H]5CCCN5C(=O)C(c5ccccc5)N5CCC(O)CC5)[nH]4)cc3)cc2)[nH]1` (stereo partly drawn) [Example 24-4h, 1,1′-(4,4′-biphenyldiylbis(1H-imidazole-5,2-diyl(2S)-2,1-pyrrolidinediyl(2-oxo-1-phenyl-2,1-ethanediyl)))di(4-piperidinol)]: 0.001 to 0.999 nM.
Still for that read-out and setting: the same measure for `COC(=O)N[C@@H](Cc1ccc(OP(=O)(O)OC)cc1)C(=O)N1CCC[C@H]1c1ncc(-c2ccc(-c3ccc(-c4cnc([C@@H]5CCCN5C(=O)[C@@H](NC(=O)OC)C(C)C)[nH]4)cc3)cc2)[nH]1` [cj-91, methyl ((1S)-1-(((2S)-2-(5-(4′-(2-((2S)-1-(O-(hydroxy(methoxy)phosphoryl)-N-(methoxycarbonyl)-L-tyrosyl)-2-pyrrolidinyl)-1H-imidazol-5-yl)-4-biphenylyl)-1H-imidazol-2-yl)-1-pyrrolidinyl)carbonyl)-2-methylpropyl)carbamate]: 0.001 to 0.999 nM; for `CCCc1[nH]c([C@@H]2CCCN2C(=O)[C@H](C)NC(=O)OC)nc1-c1ccc(-c2ccc(-c3cnc([C@@H]4CCCN4C(=O)[C@H](C)NC(=O)OC)[nH]3)cc2)cc1` [Example J14c, methyl ((1S)-2-((2S)-2-(4-(4′-(2-((2S)-1-(N-(methoxycarbonyl)-L-alanyl)-2-pyrrolidinyl)-4-propyl-1H-imidazol-5-yl)-4-biphenylyl)-1H-imidazol-2-yl)-1-pyrrolidinyl)-1-methyl-2-oxoethyl)carbamate]: 0.001 to 0.999 nM; for `COC(=O)N[C@@H](C(=O)N1CCC[C@H]1c1ncc(-c2ccc(-c3ccc(-c4cnc([C@@H]5CCCN5C(=O)[C@H](NC(=O)OC)c5ccccc5)[nH]4)cn3)nc2)[nH]1)c1ccccc1` [Example 145, dimethyl (2,2′-bipyridine-5,5′-diylbis(1H-imidazole-5,2-diyl(2S)-2,1-pyrrolidinediyl((1R)-2-oxo-1-phenyl-2,1-ethanediyl)))biscarbamate]: 0.001 to 0.999 nM.
As to `COC(=O)N[C@H](C(=O)N1CCC[C@H]1c1ncc(-c2ccc(-c3ccc(-c4cnc([C@@H]5CCCN5C(=O)[C@@H](NC(=O)OC)C(C)C)[nH]4)c(F)c3)cc2)[nH]1)C(C)C` [Example D40, methyl ((1S)-1-(((2S)-2-(5-(3′-fluoro-4′-(2-((2S)-1-((2S)-2-((methoxycarbonyl)amino)-3-methylbutanoyl)-2-pyrrolidinyl)-1H-imidazol-5-yl)-4-biphenylyl)-1H-imidazol-2-yl)-1-pyrrolidinyl)carbony)-2-methylpropyl) carbamate], the EC50 is 0.001 to 0.999 nM.
On the same count and under the same terms, the figure for `CCN(CC)[C@@H](C(=O)N1CCC[C@H]1c1ncc(-c2ccc(-c3ccc(-c4cnc([C@@H]5CCCN5C(=O)[C@@H]5CC[C@H](NC(=O)OC)C5)[nH]4)cc3)cc2)[nH]1)c1ccccc1` [cj-57, methyl ((1S,3R)-3-(((2S)-2-(5-(4′-(2-((2S)-1-((2R)-2-(diethylamino)-2-phenylacetyl)-2-pyrrolidinyl)-1H-imidazol-5-yl)-4-biphenylyl)-1H-imidazol-2-yl)-1-pyrrolidinyl)carbonyl)cyclopentyl)carbamate] is 0.001 to 0.999 nM; for `CCOC(=O)c1nc([C@@H]2CCCN2C(=O)[C@@H](c2ccccc2)N(C)C)[nH]c1-c1ccc(-c2ccc(-c3cnc([C@@H]4CCCN4C(=O)[C@@H](c4ccccc4)N(C)C)[nH]3)cc2)cc1` [Example J20, ethyl 2-((2S)-l-((2R)-2-(dimethylamino)-2-phenylacetyl)-2-pyrrolidinyl)-5-(4-(2-((2S)-1-((2R)-2-(dimethylamino)-2-phenylacetyl)-2-pyrrolidinyl)-1H-imidazol-5-yl)-4-biphenylyl)-1H-imidazole-4-carboxylate] it is 0.001 to 0.999 nM; for `CCN(CC)[C@@H](C(=O)N1CCC[C@H]1c1ncc(-c2ccc(-c3ccc(-c4cnc([C@@H]5CCCN5C(=O)[C@@H](NC(=O)OC)C(C)C)[nH]4)c(F)c3)cc2)[nH]1)c1ccccc1` [Example D35, methyl ((1S)-1-(((2S)-2-(5-(4′-(2-((2S)-1-((2R)-2-(diethylamino)-2 - phenylacetyl)-2-pyrrolidinyl)-1H-imidazol-5-yl)-3-fluoro-4-biphenylyl)-1H-imidazol-2-yl)-1-pyrrolidinyl)carbonyl)-2-methylpropyl) carbamate] it is 0.001 to 0.999 nM.
As for `O=C(CCN1CCCCC1)N1CCC[C@H]1c1ncc(-c2ccc(-c3ccc(-c4cnc([C@@H]5CCCN5C(=O)[C@@H](c5ccccc5)N5CCCCC5)[nH]4)cc3)cc2)[nH]1` [Example 107-7, 1-(3-oxo-3-((2S)-2-(5-(4′-(2-((2S)-1-((2R)-2-phenyl-2-(1-piperidinyl)acetyl)-2-pyrrolidinyl)-1H-imidazol-5-yl)-4-biphenylyl)-1H-imidazol-2-yl)-1-pyrrolidinyl)propyl)piperidine], the EC50 is 0.001 to 0.999 nM.
As for `COC(=O)NCC(=O)N1CCC[C@H]1c1ncc(-c2ccc(-c3ccc(-c4cnc([C@@H]5CCCN5C(=O)[C@@H](c5ccccc5)N5CCCC5)[nH]4)cc3)cc2)[nH]1` [Example 102, methyl (2-oxo-2-((2S)-2-(5-(4′-(2-((2S)-1-((2R)-2-phenyl-2-(1-pyrrolidinyl)acetyl)-2-pyrrolidinyl)-1H-imidazol-5-yl)-4-biphenylyl)-1H-imidazol-2-yl)-1-pyrrolidinyl)ethyl)carbamate], the EC50 was 0.001 to 0.999 nM.
Still for that read-out and setting: the figure for `C=CC[C@H](NC(=O)OC)C(=O)N1CCC[C@H]1c1ncc(-c2ccc(-c3ccc(-c4cnc([C@@H]5CCCN5C(=O)[C@H](CC=C)NC(=O)OC)[nH]4)cc3)cc2)[nH]1` [Example M25, dimethyl (4,4′-biphenyldiylbis(1H-imidazole-5,2-diyl(2S)-2,1-pyrrolidinediyl((4S)-5-oxo-1-pentene-5,4-diyl)))biscarbamate] is 1 to 99 nM.
On the same count and under the same terms, the same measure for `CC(C)OC(=O)N[C@H](C(=O)N1CCC[C@H]1c1nc(-c2ccc(-c3ccc(-c4c[nH]c([C@@H]5CCCN5C(=O)[C@@H](NC(=O)OC(C)C)C(C)C)n4)cc3)cc2)c[nH]1)C(C)C` [Example F26, isopropyl ((1S)-1-(((2S)-2-(4-(4′-(2-((2S)-1-((2S)-2-((isopropoxycarbonyl)amino)-3-methylbutanoyl)-2-pyrrolidinyl)-1H-imidazol-4-yl)-4-biphenylyl)-1H-imidazol-2-yl)-1-pyrrolidinyl)carbonyl)-2-methylpropyl)carbamate]: 1 to 99 nM.
`CCN(CC)[C@@H](C(=O)N1CCC[C@H]1c1nc(-c2ccc(-c3ccc(-c4cnc([C@@H]5CCCN5C(=O)[C@@](C)(NC(=O)OC)C(C)C)[nH]4)cc3)cc2)c[nH]1)c1ccccc1` [Example F43, methyl ((1S)-1-(((2S)-2-(5-(4′-(2-((2S)-1-((2R)-2-(diethylamino)-2-phenylacetyl)-2-pyrrolidinyl)-1H-imidazol-4-yl)-4-biphenylyl)-1H-imidazol-2-yl)-1-pyrrolidinyl)carbonyl)-1,2-dimethylpropyl)carbamate]: the EC50 was in the range of 0.001 to 0.999 nM.
Same read-out and setting: the same measure for `COC(=O)N[C@@H](C(=O)N[C@@H](C)c1ncc(-c2ccc(-c3ccc(-c4cnc([C@H](C)NC(=O)[C@H](NC(=O)OC)c5ccccc5)[nH]4)cn3)cc2)[nH]1)c1ccccc1` [Example 152j-23, methyl ((1R)-2-(((1S)-1-(5-(6-(4-(2-((1S)-1-(((2R)-2-((methoxycarbonyl)amino)-2-phenylacetyl)amino)ethyl)-1H-imidazol-5-yl)phenyl)-3-pyridinyl)-1H-imidazol-2-yl)ethyl)amino)-2-oxo-1-phenylethyl)carbamate]: 0.001 to 0.999 nM.
